Experimental data published in patent US20260335307A1, “ANTIMICROBIAL COMBINATIONS” (Helperby Therapeutics Limited, priority 2022, published 2026).

Assays:
ESBL E. coli = assay: Chequerboard assay (OD600, MIC and FIC) of 4-mer combinations against ESBL E. coli; format: cell-based; settings: for MIC Monotherapy (X): drug alone; for MIC combination therapy (Y): drug in 4-mer ceftazidime, doxycycline; for Ratio Y:X: MIC combination / MIC monotherapy
Source text: (§1) Synergy is not predictable or expected when two or more actives are used in combination. […] One of the ways to assess whether synergy has been observed is to use the “chequerboard” technique. This is a well-accepted method that leads to the generation of a value called the fractional inhibitory concentration index (FICI). Orhan et al., J. Clin. Microbiol. 2005, 43(1):140 describes the chequerboard method and analysis in the paragraph bridging pages 140-141, and explains that the FICI value is a ratio of the sum of the MIC (Minimum Inhibitory Concentration) level of each individual component alone and in the mixture.
FICI or fractional inhibitory concentration index is the sum of the FICs of each antimicrobial when used in combination. The FIC or fractional inhibitory concentration of an antimicrobial in a combination, is the MIC of the antimicrobial in the combination divided by the MIC of the same antimicrobial when used alone. Minimum inhibitory concentrations are defined in the art as the lowest concentration of an antimicrobial that will inhibit the visible growth of a microorganism after overnight incubation.
There has in fact been very little previous work in this field. […] This method is applicable for any combination with “n” antimicrobial agents.
In this method, two antibiotics were “fixed” as part of a backbone whilst the two other antibiotics were varied over a doubling concentration scale beginning at the MIC (×1) for the effective dose in monotherapy against the organism being tested. The ΣFIC was then calculated as shown below.
The ΣFIC was divided by “0.5/n” where n=number of antimicrobials in the combination to provide FIC. The inventors opted for this expression because it more closely aligns with the 2-mer synergy levels. The same FIC scale as used for 2-mers was applied: synergy is observed when FIC is <0.5. An “Additive” effect is observed when FIC is 0.5 to <1. Indifference is observed when FIC is 1 to <2. Antagonism is observed when FIC is 2 to 4.
Synergy can be expressed as “ΣFIC≤0.25×n”.
The above method was used in the Examples herein.
The antimicrobial agents were sourced from commercially available sources. They were prepared by being weighed and dissolved in water, PBS, DMSO or acidified water to a final concentration from 1-10 mg/mL. Antimicrobial solutions were diluted to 10× highest concentration used in the experiment and subsequently diluted 2x over a series not exceeding 11 serial dilutions. These left the operator with a maximum of 12 different, descending concentrations of the chosen antimicrobials.
The bacteria were obtained from Ninewells Hospital and Medical School in Dundee, Scotland. They were obtained as patient strains and characterised by Vitek 2 screening. To prepare for the Examples below, the bacteria were grown overnight in Mueller Hinton Cation adjusted broth or until confluent in media with or without supplements. The bacteria were measured for OD600 and readings of <0.25 were returned to the incubator.
All data herein was produced using the same chequerboard assay.
20 uL of antibiotic A (backbone) and 20 uL of antibiotic B (backbone), at a single dilution, were pipetted into all wells of a 96-well plate to be used.
20 uL of the lowest concentration of antibiotic C (first variable) was pipetted into column 1 of the 96-well plate. The second concentration (2-fold more concentrate) was pipetted into column 2. This process was repeated until all concentrations of antibiotic […] to be used were complete.
20 uL of the lowest concentration of antibiotic D (second variable) were pipetted into row A of the 96-well plate. The second concentration (2-fold more concentrate) was pipetted into row B. This process was repeated until all concentrations of antibiotic […] to be used were complete.
120 uL of sterile media (BHI/MHB2) was added.
20 ul of prepared bacterial culture was added.
Plates were sealed with lids and left to incubate for 16 hours, overnight.

[1] = tested on: KPC (Klebsiella pneumoniae carbapenemase) producing K. pneumoniae; assay: Chequerboard assay (percentage kill from OD600, MIC and FIC) of 4-mer combination against KPC producing K. pneumoniae; format: cell-based; settings: Example 4, backbone ceftazidime + colistin
Source text: as §1
FICI or fractional inhibitory concentration index is the sum of the FICs of each antimicrobial when used in combination. […]
In this method, two antibiotics were “fixed” as part of a backbone whilst the two other antibiotics were varied over a doubling concentration scale beginning at the MIC (×1) for the effective dose in monotherapy against the organism being tested. The ΣFIC was then calculated as shown below. […]
Synergy can be expressed as “ΣFIC≤0.25×n”. […]
The bacteria were obtained from Ninewells Hospital and Medical School in Dundee, Scotland. […] The bacteria were measured for OD600 and readings of <0.25 were returned to the incubator. […]

[2] = Example 1, backbone ceftazidime + doxycycline
[3] = Example 1, backbone ceftazidime + doxycycline, colistin, rifampicin
[4] = Example 1, backbone colistin + ceftazidime
[5] = Example 3, backbone rifampicin + doxycycline
[6] = Example 2, backbone colistin + doxycycline
[7] = Example 2, backbone colistin + doxycycline, colistin, levofloxacin
[8] = Example 3, backbone rifampicin + doxycycline, rifampicin, levofloxacin

| SMILES | MIC Monotherapy (X) (ESBL E. coli; [2]) | MIC combination therapy (Y) (ESBL E. coli; [3]) | MIC Monotherapy (X) (ESBL E. coli; [4]) | MIC Monotherapy (X) (ESBL E. coli; [5]) | Ratio Y:X (ESBL E. coli; [6]) | MIC Monotherapy (X) (ESBL E. coli; [6]) | MIC combination therapy (Y) (ESBL E. coli; [7]) | Ratio Y:X (ESBL E. coli; [5]) | MIC combination therapy (Y) (ESBL E. coli; [8]) | MIC (ESBL E. coli; Escherichia coli, read-out: isolate resistant to ceftazidime at) | MIC combination therapy (Y) (ESBL E. coli; Example 1, backbone colistin + ceftazidime, colistin, rifampicin) | MIC Monotherapy (X) ([1]; drug alone) | MIC combination therapy (Y) ([1]; drug in 4-mer ceftazidime, doxycycline, rifampicin, colistin) |
| --- | --- | --- | --- | --- | --- | --- | --- | --- | --- | --- | --- | --- | --- |
| CO[C@H]1/C=C/O[C@@]2(C)Oc3c(C)c(O)c4c(O)c(c(/C=N/N5CCN(C)CC5)c(O)c4c3C2=O)NC(=O)/C(C)=C\C=C\[C@H](C)[C@H](O)[C@@H](C)[C@@H](O)[C@@H](C)[C@H](OC(C)=O)[C@@H]1C [Rifampicin] | 4 µg/mL | 0.5 µg/mL | 4 µg/mL | 1 µg/mL |  |  |  |  |  |  |  |  |  |
| C[C@H]1COc2c(N3CCN(C)CC3)c(F)cc3c(=O)c(C(=O)O)cn1c23 [Levofloxacin] |  |  |  | 8 µg/mL | 0.03125 | 8 µg/mL | 0.25 µg/mL | 0.03125 | 0.25 µg/mL |  |  |  |  |
| CC(C)(O/N=C(\C(=O)N[C@@H]1C(=O)N2C(C(=O)[O-])=C(C[n+]3ccccc3)CS[C@H]12)c1csc(N)n1)C(=O)O [Ceftazidime] |  | 4 µg/mL |  |  |  |  | 16 µg/mL |  | 16 µg/mL | ≥ 32 µg/mL |  |  |  |
| C[C@H]1c2cccc(O)c2C(=O)C2=C(O)[C@]3(O)C(=O)C(C(N)=O)=C(O)[C@@H](N(C)C)[C@@H]3[C@@H](O)[C@@H]21 [Doxycycline] | 1 µg/mL |  | 1 µg/mL | 1 µg/mL |  | 1 µg/mL |  |  |  |  | 0.25 µg/mL | 1 µg/mL | 0.25 µg/mL |
